Source: publication PMC12454493, “Insight on novel sulfamoylphenyl pyrazole derivatives as anticancer carbonic anhydrase inhibitors” (Molecular Diversity, 2024)
Where “and” joins values, the source holds several entries; their conditions need not be identical. Equal entries are not always repeated.

Legend:
A549/ATCC = test: NCI-60 one-dose SRB screen (Non-Small Cell Lung Cancer); assay type: cell-based; conditions: Homo sapiens, single dose 10 µM, 48 h, read-out: Growth inhibition percent (GI %)
EKVX = test: as above; assay type: cell-based; conditions: Homo sapiens, single dose 10 µM, 48 h, read-out: Growth inhibition percent (GI %)
HOP-62 = test: as above; assay type: cell-based; conditions: Homo sapiens, single dose 10 µM, 48 h, read-out: Growth inhibition percent (GI %)
HOP-92 = test: as above; assay type: cell-based; conditions: Homo sapiens, single dose 10 µM, 48 h, read-out: Growth inhibition percent (GI %)
NCI-H226 = test: as above; assay type: cell-based; conditions: Homo sapiens, single dose 10 µM, 48 h, read-out: Growth inhibition percent (GI %)
NCI-H23 = test: as above; assay type: cell-based; conditions: Homo sapiens, single dose 10 µM, 48 h, read-out: Growth inhibition percent (GI %)
NCI-H322M = test: as above; assay type: cell-based; conditions: Homo sapiens, single dose 10 µM, 48 h, read-out: Growth inhibition percent (GI %)
NCI-H460 = test: as above; assay type: cell-based; conditions: Homo sapiens, single dose 10 µM, 48 h, read-out: Growth inhibition percent (GI %)
NCI-H522 = test: as above; assay type: cell-based; conditions: Homo sapiens, single dose 10 µM, 48 h, read-out: Growth inhibition percent (GI %)
COLO 205 = test: NCI-60 one-dose SRB screen (Colon Cancer); assay type: cell-based; conditions: Homo sapiens, single dose 10 µM, 48 h, read-out: Growth inhibition percent (GI %)
HCC-2998 = test: NCI-60 one-dose SRB screen (Colon Cancer); assay type: cell-based; conditions: Homo sapiens, single dose 10 µM, 48 h, read-out: Growth inhibition percent (GI %)
HCT-116 = test: NCI-60 one-dose SRB screen (Colon Cancer); assay type: cell-based; conditions: Homo sapiens, single dose 10 µM, 48 h, read-out: Growth inhibition percent (GI %)
HCT-15 = test: NCI-60 one-dose SRB screen (Colon Cancer); assay type: cell-based; conditions: Homo sapiens, single dose 10 µM, 48 h, read-out: Growth inhibition percent (GI %)
HT29 = test: NCI-60 one-dose SRB screen (Colon Cancer); assay type: cell-based; conditions: Homo sapiens, HT-29, single dose 10 µM, 48 h, read-out: Growth inhibition percent (GI %)
KM12 = test: NCI-60 one-dose SRB screen (Colon Cancer); assay type: cell-based; conditions: Homo sapiens, single dose 10 µM, 48 h, read-out: Growth inhibition percent (GI %)
SW-620 = test: NCI-60 one-dose SRB screen (Colon Cancer); assay type: cell-based; conditions: Homo sapiens, single dose 10 µM, 48 h, read-out: Growth inhibition percent (GI %)
SF-268 = test: NCI-60 one-dose SRB screen (CNS Cancer); assay type: cell-based; conditions: Homo sapiens, single dose 10 µM, 48 h, read-out: Growth inhibition percent (GI %)
SF-295 = test: NCI-60 one-dose SRB screen (CNS Cancer); assay type: cell-based; conditions: Homo sapiens, single dose 10 µM, 48 h, read-out: Growth inhibition percent (GI %)
SF-539 = test: NCI-60 one-dose SRB screen (CNS Cancer); assay type: cell-based; conditions: Homo sapiens, single dose 10 µM, 48 h, read-out: Growth inhibition percent (GI %)
SNB-19 = test: NCI-60 one-dose SRB screen (CNS Cancer); assay type: cell-based; conditions: Homo sapiens, single dose 10 µM, 48 h, read-out: Growth inhibition percent (GI %)
SNB-75 = test: NCI-60 one-dose SRB screen (CNS Cancer); assay type: cell-based; conditions: Homo sapiens, single dose 10 µM, 48 h, read-out: Growth inhibition percent (GI %)
U251 = test: NCI-60 one-dose SRB screen (CNS Cancer); assay type: cell-based; conditions: Homo sapiens, U-251, single dose 10 µM, 48 h, read-out: Growth inhibition percent (GI %)
LOX IMVI = test: NCI-60 one-dose SRB screen (Melanoma); assay type: cell-based; conditions: Homo sapiens, single dose 10 µM, 48 h, read-out: Growth inhibition percent (GI %)
M14 = test: NCI-60 one-dose SRB screen (Melanoma); assay type: cell-based; conditions: Homo sapiens, single dose 10 µM, 48 h, read-out: Growth inhibition percent (GI %)
MALME-3M = test: NCI-60 one-dose SRB screen (Melanoma); assay type: cell-based; conditions: Homo sapiens, single dose 10 µM, 48 h, read-out: Growth inhibition percent (GI %)
MDA-MB-435 = test: NCI-60 one-dose SRB screen (Melanoma); assay type: cell-based; conditions: Homo sapiens, single dose 10 µM, 48 h, read-out: Growth inhibition percent (GI %)
SK-MEL-28 = test: NCI-60 one-dose SRB screen (Melanoma); assay type: cell-based; conditions: Homo sapiens, single dose 10 µM, 48 h, read-out: Growth inhibition percent (GI %)
SK-MEL-2 = test: NCI-60 one-dose SRB screen (Melanoma); assay type: cell-based; conditions: Homo sapiens, single dose 10 µM, 48 h, read-out: Growth inhibition percent (GI %)
SK-MEL-5 = test: NCI-60 one-dose SRB screen (Melanoma); assay type: cell-based; conditions: Homo sapiens, single dose 10 µM, 48 h, read-out: Growth inhibition percent (GI %)
UACC-257 = test: NCI-60 one-dose SRB screen (Melanoma); assay type: cell-based; conditions: Homo sapiens, single dose 10 µM, 48 h, read-out: Growth inhibition percent (GI %)
IGROV1 = test: NCI-60 one-dose SRB screen (Ovarian cancer); assay type: cell-based; conditions: Homo sapiens, IGROV-1, single dose 10 µM, 48 h, read-out: Growth inhibition percent (GI %)
NCI/ADR-RES = test: NCI-60 one-dose SRB screen (Ovarian cancer); assay type: cell-based; conditions: Homo sapiens, single dose 10 µM, 48 h, read-out: Growth inhibition percent (GI %)
OVCAR-3 = test: NCI-60 one-dose SRB screen (Ovarian cancer); assay type: cell-based; conditions: Homo sapiens, single dose 10 µM, 48 h, read-out: Growth inhibition percent (GI %)
OVCAR-4 = test: NCI-60 one-dose SRB screen (Ovarian cancer); assay type: cell-based; conditions: Homo sapiens, single dose 10 µM, 48 h, read-out: Growth inhibition percent (GI %)
OVCAR-5 = test: NCI-60 one-dose SRB screen (Ovarian cancer); assay type: cell-based; conditions: Homo sapiens, single dose 10 µM, 48 h, read-out: Growth inhibition percent (GI %)
OVCAR-8 = test: NCI-60 one-dose SRB screen (Ovarian cancer); assay type: cell-based; conditions: Homo sapiens, single dose 10 µM, 48 h, read-out: Growth inhibition percent (GI %)
SK-OV-3 = test: NCI-60 one-dose SRB screen (Ovarian cancer); assay type: cell-based; conditions: Homo sapiens, single dose 10 µM, 48 h, read-out: Growth inhibition percent (GI %)
A498 = test: NCI-60 one-dose SRB screen (Renal Cancer); assay type: cell-based; conditions: Homo sapiens, single dose 10 µM, 48 h, read-out: Growth inhibition percent (GI %)
ACHN = test: NCI-60 one-dose SRB screen (Renal Cancer); assay type: cell-based; conditions: Homo sapiens, single dose 10 µM, 48 h, read-out: Growth inhibition percent (GI %)
CAKI-1 = test: NCI-60 one-dose SRB screen (Renal Cancer); assay type: cell-based; conditions: Homo sapiens, single dose 10 µM, 48 h, read-out: Growth inhibition percent (GI %)
RXF 393 = test: NCI-60 one-dose SRB screen (Renal Cancer); assay type: cell-based; conditions: Homo sapiens, single dose 10 µM, 48 h, read-out: Growth inhibition percent (GI %)
SN12C = test: NCI-60 one-dose SRB screen (Renal Cancer); assay type: cell-based; conditions: Homo sapiens, single dose 10 µM, 48 h, read-out: Growth inhibition percent (GI %)
TK-10 = test: NCI-60 one-dose SRB screen (Renal Cancer); assay type: cell-based; conditions: Homo sapiens, single dose 10 µM, 48 h, read-out: Growth inhibition percent (GI %)
UO-31 = test: NCI-60 one-dose SRB screen (Renal Cancer); assay type: cell-based; conditions: Homo sapiens, single dose 10 µM, 48 h, read-out: Growth inhibition percent (GI %)
DU-145 = test: NCI-60 one-dose SRB screen (Prostate Cancer); assay type: cell-based; conditions: Homo sapiens, single dose 10 µM, 48 h, read-out: Growth inhibition percent (GI %)
PC-3 = test: NCI-60 one-dose SRB screen (Prostate Cancer); assay type: cell-based; conditions: Homo sapiens, single dose 10 µM, 48 h, read-out: Growth inhibition percent (GI %)
hCA XII = hCA XII (Homo sapiens, UniProt O43570); test: CA inhibitory activity, spectrophotometric p-NPA assay; assay type: biochemical; conditions: p-NPA substrate, pH 7.5, 25 °C, triplicate; read-out: IC50 (µM) ± SD hCA XII
Procedure: The software used to calculate CA IC50 along with statistical analysis of the results is GraphPad Prism 9.00. Results were estimated by using one-way ANOVA and the Bonferroni’s multiple comparisons posthoc test was performed (P < 0.05) [46]
Carbonic anhydrase inhibitory activity:
The spectrophotometric assay was conducted in HEPES-Tris buffer, NaCl of pH 7.5 (20mM) at 25◦C. Each inhibitory well-consisted of 50 μL of assay buffer solution, 20 μL of hCA enzyme solution (20 ng/μL in Assay Buffer), and 50 μL of test compound in HPLC grade DMSO (maintain 10% of the final concentration). The mixture solution was
Substrate p-nitrophenyl acetate (p-NPA) (0.7mM) was prepared in HPLC grade methanol and the reaction was started by adding 20 μL to a well in a 96-well-plate. The amount of product formed was measured for 30 min continuously at 1 min intervals at 400 nm in a 96-well-plate using xMARK microplate spectrophotometer, Bio-Rad (USA). The activity of the controlled compound was taken as 100%. All experiments were carried out in triplicates of each used concentration, and results are represented as a

786-0 = test: NCI-60 one-dose SRB screen (Renal Cancer); assay type: cell-based; conditions: Homo sapiens, single dose 10 µM, 48 h, read-out: Growth inhibition percent (GI %)

hCA XII, sequence (O43570 25-354): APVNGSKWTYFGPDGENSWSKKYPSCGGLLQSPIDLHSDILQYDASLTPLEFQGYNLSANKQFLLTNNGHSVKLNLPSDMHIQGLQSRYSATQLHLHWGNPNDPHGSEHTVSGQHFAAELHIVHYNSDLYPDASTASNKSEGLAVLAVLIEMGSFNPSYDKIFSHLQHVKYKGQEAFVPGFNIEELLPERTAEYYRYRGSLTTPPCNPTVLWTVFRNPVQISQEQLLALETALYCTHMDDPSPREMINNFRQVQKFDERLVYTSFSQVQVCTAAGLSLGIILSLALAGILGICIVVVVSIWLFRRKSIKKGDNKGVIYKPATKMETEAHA

NS(=O)(=O)c1ccc(-n2cc(C(=O)OCC(=O)Nc3nnc(S(N)(=O)=O)s3)c(-c3ccccc3)n2)cc1 [Compound 6a, 2-Oxo-2-[(5-sulfamoyl-1,3,4-thiadiazol-2-yl)amino] ethyl 3-phenyl-1-(4-sulfamoylphenyl)-1H-pyrazole-4-carboxylate]
inhibition at 10 µM (A549/ATCC): < 5% | inhibition at 10 µM (EKVX): 9.86% | inhibition at 10 µM (HOP-62): < 5% | inhibition at 10 µM (HOP-92): < 5% | inhibition at 10 µM (NCI-H226): 16.2% | inhibition at 10 µM (NCI-H23): < 5% | inhibition at 10 µM (NCI-H322M): < 5% | inhibition at 10 µM (NCI-H460): < 5% | inhibition at 10 µM (NCI-H522): 13.3% | inhibition at 10 µM (COLO 205): < 5% | inhibition at 10 µM (HCC-2998): < 5% | inhibition at 10 µM (HCT-116): < 5% | inhibition at 10 µM (HCT-15): < 5% | inhibition at 10 µM (HT29): < 5% | inhibition at 10 µM (KM12): < 5% | inhibition at 10 µM (SW-620): < 5% | inhibition at 10 µM (SF-268): < 5% | inhibition at 10 µM (SF-295): < 5% | inhibition at 10 µM (SF-539): < 5% | inhibition at 10 µM (SNB-19): 6.91% | inhibition at 10 µM (SNB-75): 5.39% | inhibition at 10 µM (U251): < 5% | inhibition at 10 µM (LOX IMVI): 8.67% | inhibition at 10 µM (M14): < 5% | inhibition at 10 µM (MALME-3M): < 5% | inhibition at 10 µM (MDA-MB-435): < 5% | inhibition at 10 µM (SK-MEL-28): < 5% | inhibition at 10 µM (SK-MEL-2): < 5% | inhibition at 10 µM (SK-MEL-5): < 5% | inhibition at 10 µM (UACC-257): < 5% | inhibition at 10 µM (IGROV1): < 5% | inhibition at 10 µM (NCI/ADR-RES): < 5% | inhibition at 10 µM (OVCAR-3): < 5% | inhibition at 10 µM (OVCAR-4): < 5% | inhibition at 10 µM (OVCAR-5): < 5% | inhibition at 10 µM (OVCAR-8): < 5% | inhibition at 10 µM (SK-OV-3): 54.6% | inhibition at 10 µM (A498): < 5% | inhibition at 10 µM (ACHN): 6.63% | inhibition at 10 µM (CAKI-1): 7.52% | inhibition at 10 µM (RXF 393): < 5% | inhibition at 10 µM (SN12C): < 5% | inhibition at 10 µM (TK-10): < 5% | inhibition at 10 µM (UO-31): 12.6% | inhibition at 10 µM (DU-145): < 5% | inhibition at 10 µM (PC-3): < 5% | IC50 (hCA XII): 0.35 µM and 0.358 µM

NS(=O)(=O)c1ccc(NC(=O)COC(=O)c2cn(-c3ccc(S(N)(=O)=O)cc3)nc2-c2ccc(Br)cc2)cc1 [Compound 4d, 2-Oxo-2-[(4-sulfamoylphenyl)amino] ethyl 3-(4-bromophenyl)-1-(4-sulfamoylphenyl)-1H-pyrazole-4-carboxylate]
inhibition at 10 µM (A549/ATCC): < 5% | inhibition at 10 µM (EKVX): 21% | inhibition at 10 µM (HOP-62): < 5% | inhibition at 10 µM (HOP-92): 49.6% | inhibition at 10 µM (NCI-H226): < 5% | inhibition at 10 µM (NCI-H23): < 5% | inhibition at 10 µM (NCI-H322M): 21.5% | inhibition at 10 µM (NCI-H460): < 5% | inhibition at 10 µM (NCI-H522): 19.8% | inhibition at 10 µM (COLO 205): 8.46% | inhibition at 10 µM (HCC-2998): < 5% | inhibition at 10 µM (HCT-116): 84.6% | inhibition at 10 µM (HCT-15): 10.6% | inhibition at 10 µM (HT29): < 5% | inhibition at 10 µM (KM12): < 5% | inhibition at 10 µM (SW-620): < 5% | inhibition at 10 µM (SF-268): 34.8% | inhibition at 10 µM (SF-295): < 5% | inhibition at 10 µM (SF-539): 26.7% | inhibition at 10 µM (SNB-19): 24.1% | inhibition at 10 µM (SNB-75): 64.3% | inhibition at 10 µM (U251): 25% | inhibition at 10 µM (LOX IMVI): 47.7% | inhibition at 10 µM (M14): 79.6% | inhibition at 10 µM (MALME-3M): < 5% | inhibition at 10 µM (MDA-MB-435): 60.1% | inhibition at 10 µM (SK-MEL-28): < 5% | inhibition at 10 µM (SK-MEL-5): 14.3% | inhibition at 10 µM (UACC-257): < 5% | inhibition at 10 µM (IGROV1): < 5% | inhibition at 10 µM (OVCAR-3): 23% | inhibition at 10 µM (OVCAR-4): 34.6% | inhibition at 10 µM (OVCAR-5): 12.3% | inhibition at 10 µM (OVCAR-8): < 5% | inhibition at 10 µM (SK-OV-3): < 5% | inhibition at 10 µM (786-0): 86.5% | inhibition at 10 µM (A498): 16.8% | inhibition at 10 µM (ACHN): < 5% | inhibition at 10 µM (CAKI-1): 63.5% | inhibition at 10 µM (RXF 393): < 5% | inhibition at 10 µM (SN12C): 11.8% | inhibition at 10 µM (TK-10): < 5% | inhibition at 10 µM (UO-31): 23.2% | inhibition at 10 µM (DU-145): < 5% | inhibition at 10 µM (PC-3): 23.1% | IC50 (hCA XII): 0.81 µM and 0.814 µM
